Experimental data from the NIST ThermoML archive (doi:10.1016/j.jct.2007.07.002).

Details: Gas, double Helmholtz acoustic resonator

F[Si](F)(F)F [silicon tetrafluoride]
Details	kinematic viscosity [m2/s]	speed of sound [m/s]
215 K, 198.15 kPa	1.06e-06	136.99
215 K, 283.66 kPa	7.32e-07	135.34
215 K, 378.5 kPa	5.24e-07	133.42
215 K, 461.43 kPa	4.37e-07	131.7
215 K, 551.52 kPa	3.6e-07	129.72
215 K, 649.39 kPa	3.03e-07	127.46
215 K, 746.64 kPa	2.59e-07	125.06
230 K, 271.49 kPa	8.88e-07	141.02
230 K, 424.62 kPa	5.63e-07	138.59
230 K, 578.31 kPa	3.98e-07	136.01
230 K, 742.99 kPa	2.84e-07	133.07
230 K, 897.83 kPa	2.5e-07	130.19
230 K, 1088.3 kPa	2.9e-07	126.35
230 K, 1251 kPa	1.76e-07	122.68
245 K, 248.32 kPa	1.09e-06	146.4
245 K, 393.67 kPa	6.6e-07	144.55
245 K, 542.46 kPa	4.92e-07	142.59
245 K, 703.75 kPa	3.7e-07	140.39
245 K, 873.41 kPa	2.95e-07	138
245 K, 1034.5 kPa	2.46e-07	135.63
245 K, 1220 kPa	2.08e-07	132.78
245 K, 1434.3 kPa	1.74e-07	129.26
245 K, 1599.8 kPa	1.55e-07	126.37
245 K, 1777.8 kPa	1.4e-07	123.04
245 K, 1958.5 kPa	1.25e-07	119.34
260 K, 206.14 kPa	1.34e-06	151.46
260 K, 410.06 kPa	7.49e-07	149.46
260 K, 617.98 kPa	4.82e-07	147.22
260 K, 830.76 kPa	3.54e-07	144.88
260 K, 1047.1 kPa	2.74e-07	142.41
260 K, 1252 kPa	2.3e-07	140.01
260 K, 1498.2 kPa	1.91e-07	137.01
260 K, 1794.3 kPa	1.58e-07	133.23
260 K, 2026.6 kPa	1.39e-07	130.08
260 K, 2282.2 kPa	1.25e-07	126.45
260 K, 2541.7 kPa	1.1e-07	122.51
274.58 K, 524.86 kPa	6.36e-07	153.14
274.58 K, 642.96 kPa	5.09e-07	152.03
274.58 K, 744.26 kPa	4.24e-07	151.15
274.58 K, 845.26 kPa	3.88e-07	150.26
274.58 K, 947.16 kPa	3.48e-07	149.34
274.58 K, 1048.3 kPa	3.11e-07	148.41
274.58 K, 1150.3 kPa	2.86e-07	147.47
274.58 K, 1252.2 kPa	2.59e-07	146.53
274.58 K, 1353.8 kPa	2.42e-07	145.57
274.58 K, 1454.6 kPa	2.28e-07	144.62
274.58 K, 1556 kPa	2.09e-07	143.64
274.58 K, 1657.9 kPa	2.01e-07	142.67
274.58 K, 1764.4 kPa	1.82e-07	141.62
274.58 K, 1878.1 kPa	1.7e-07	140.5
274.58 K, 1998.5 kPa	1.64e-07	139.34
274.58 K, 2141.9 kPa	1.52e-07	137.92
274.58 K, 2244.2 kPa	1.42e-07	136.85
274.58 K, 2354.1 kPa	1.36e-07	135.74
274.58 K, 2474 kPa	1.31e-07	134.5
274.58 K, 2776.6 kPa	1.15e-07	131.33
274.58 K, 2951.3 kPa	1.08e-07	129.47
300 K, 386.04 kPa	1.14e-06	161.89
300 K, 581.57 kPa	7.42e-07	160.87
300 K, 775.29 kPa	5.2e-07	159.49
300 K, 975.51 kPa	4.04e-07	158.17
300 K, 1173.9 kPa	3.25e-07	156.88
300 K, 1443.4 kPa	2.69e-07	155.17
300 K, 1648.7 kPa	2.37e-07	153.86
300 K, 1872.1 kPa	2.11e-07	152.44
300 K, 2157.9 kPa	1.71e-07	150.6
300 K, 2526.1 kPa	1.53e-07	148.3
324.96 K, 582.54 kPa	8.84e-07	168.12
324.96 K, 731.36 kPa	6e-07	167.21
324.96 K, 1070.8 kPa	4.22e-07	165.71
324.96 K, 1257.4 kPa	3.6e-07	164.87
324.96 K, 1487.6 kPa	3.1e-07	163.84
324.96 K, 1769 kPa	2.59e-07	162.6
324.96 K, 1936.2 kPa	2.42e-07	161.88
324.96 K, 2114.4 kPa	2.11e-07	161.1
324.96 K, 2322.2 kPa	1.99e-07	160.23
324.96 K, 2541 kPa	1.84e-07	159.34
